# Measurements taken from US9994581B2, “Bromodomain inhibitors” (AbbVie Inc., priority 2013, dated 2018).
# Experiments:
# [1] = system: breast cancer cell line MX-1; experiment: MX-1 cell line proliferation assay (3-day, Cell Titer Glo); assay type: cell-based; conditions: Homo sapiens, MX1, MX-1 cells, 72 hours, read-out: Cellular proliferation: EC50
# Method in brief: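 MX-1 cells plated at 5000 cells/well and adhered overnight at 37°, then treated for 3 days with 10-point 3-fold dilutions (final top 3 or 1 μM). Viability by Cell Titer Glo luminescence normalized to DMSO-treated cells; EC50 from sigmoidal curve fit.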
# [2] = system: LPS induced IL-6 (Interleukin-6) production; experiment: LPS (lipopolysaccharide) induced IL-6 production mouse assay; conditions: oral administration one hour before LPS 2.5 mg/kg i.p., serum IL-6 2 hours after LPS, p < 0.05
# Procedure: Compounds of the Examples listed in Table 2 were assayed for their ability to inhibit LPS (lipopolysaccharide) induced IL-6 (Interleukin-6) production in mice. Fox Chase SCID® female mice (Charles Rivers Labs, 8 per group) or CD1 female mice received an intraperitoneal challenge of lipopolysaccharide (2.5 mg/kg, L2630 E. coli 0111:B4) one hour after oral administration of compounds. Mice were euthanized 2 hours after lipopolysaccharide injection, blood was removed by cardiac puncture, and then the serum harvested from the blood samples was frozen at −80° C. On the day of the assay the serum samples were brought to room temperature and then diluted 1:20 in phosphate-buffered saline containing 2% bovine serum albumin. Interleukin-6 measurements were performed using a cytokine assay from Meso Scale Discovery (Gaithersburg, Md.) for mouse serum analysis according to the manufacturer's protocol and read on a SECTOR Imager 6000 (Meso Scale Discovery, Gaithersburg, Md.) instrument. Statistical analysis was performed using Prism software (version 5.0) incorporating Dunnett's one way ANOVA. The IL-6 mean and standard deviation of the group of vehicle treated animals were compared with the IL-6 mean and standard deviation of the group treated with drug.
# BRD4 (BDI-BDII_K57-K550) = BRD4 (BDI-BDII_K57-K550) (Homo sapiens, UniProt O60885); experiment: TR-FRET bromodomain binding assay; conditions: His-tagged tandem bromodomain, Alexa647-labeled probe; Ki calculated from IC50s, probe Kd and probe concentration
Compound,EC50 [1] [nM],"Inhibition of LPS induced IL-6 production, % inhibition ([2]; CD1 mouse strain) [%]",Ki (BRD4 (BDI-BDII_K57-K550)) [nM],"Inhibition of LPS induced IL-6 production, % inhibition ([2]; SCID mouse strain) [%]"
"CCS(=O)(=O)Nc1ccc2c(c1)-c1cn(C)c(=O)cc1OCCOCc1cc(Cl)ccc1O2 [Example B-5, N-(11-chloro-2-methyl-3-oxo-2,3,6,7-tetrahydro-9H-dibenzo[6,7:9,10][1,4,8]trioxacyclododecino[11,12-c]pyridin-17-yl)ethanesulfonamide]",2.79,61,1.19,
"CCS(=O)(=O)c1ccc2c(c1)-c1cn(C)c(=O)cc1OCCCc1cc(Cl)ccc1O2 [Example A-3, 10-chloro-16-(ethylsulfonyl)-2-methyl-7,8-dihydro-2H-dibenzo[4,5:7,8][1,6]dioxacycloundecino[3,2-c]pyridin-3(6H)-one]",31.1,,7.54,78
"CCS(=O)(=O)Nc1ccc2c(c1)-c1cn(C)c(=O)cc1OCCCc1cc(F)cc(F)c1O2 [Example A-6, N-(10,12-difluoro-2-methyl-3-oxo-3,6,7,8-tetrahydro-2H-dibenzo[4,5:7,8][1,6]dioxacycloundecino[3,2-c]pyridin-16-yl)ethanesulfonamide]",9.6,86,1.51,
"CCS(=O)(=O)c1ccc2c(c1)-c1cn(C)c(=O)cc1OCCCCc1cc(Cl)ccc1O2 [Example A-13, 11-chloro-17-(ethylsulfonyl)-2-methyl-6,7,8,9-tetrahydrodibenzo[4,5:7,8][1,6]dioxacyclododecino[3,2-c]pyridin-3(2H)-one]",13.6,82,0.99,
"CCS(=O)(=O)Nc1ccc2c(c1)-c1cn(C)c(=O)cc1OCCCc1cc(Cl)ccc1O2 [Example A-5, N-(10-chloro-2-methyl-3-oxo-3,6,7,8-tetrahydro-2H-dibenzo[4,5:7,8][1,6]dioxacycloundecino[3,2-c]pyridin-16-yl)ethanesulfonamide]",12.8,,1.3,73
"Cn1cc2c(cc1=O)OCCCCc1cc(Cl)ccc1Oc1ccc(CS(C)(=O)=O)cc1-2 [Example A-36, 11-chloro-2-methyl-17-((methylsulfonyl)methyl)-6,7,8,9-tetrahydrodibenzo[4,5:7,8][1,6]dioxacyclododecino[3,2-c]pyridin-3(2H)-one]",19.2,68,2.85,
"CCS(=O)(=O)Nc1cnc2c(c1)-c1cn(C)c(=O)cc1OCCCCc1cc(Cl)ccc1O2 [Example A-33, N-(11-chloro-2-methyl-3-oxo-2,3,6,7,8,9-hexahydrobenzo[11,12][1,6]dioxacyclododecino[2,3-b:4,5-c′]dipyridin-17-yl)ethanesulfonamide]",5.68,74,1.45,
"Cn1cc2c(cc1=O)OCCCc1cc(Cl)ccc1Oc1ccc(NS(C)(=O)=O)cc1-2 [Example A-12, N-(10-chloro-2-methyl-3-oxo-3,6,7,8-tetrahydro-2H-dibenzo[4,5:7,8][1,6]dioxacycloundecino[3,2-c]pyridin-16-yl)methanesulfonamide]",19.1,47,2.16,
